IC50 and EC50 data for 13 compounds are collected here from patent publication US20230159546A1, “NOVEL SPIROPYRROLIDINE DERIVED ANTIVIRAL AGENTS” (Enanta Pharmaceuticals, Inc., priority 2021, published 2023).

Usually IC50 stands for the concentration that inhibits the measured activity by half. A word on the EC50: it is the concentration that produces a half-maximal response.

Like-named read-outs stand apart in the source and are kept apart here.

The target in one experiment is SARS-CoV-2 3CL-protease (Severe acute respiratory syndrome coronavirus 2, UniProt P0DTD1). Put plainly: SARS-CoV-2 3C-like (3CL) protease fluorescence assay (FRET). The following applies: recombinant SARS-CoV-2 3CL-protease 10 nM, 30 min preincubation at RT, duplicate; read-out: FRET IC50. The format is biochemical.
In experiment [1] the test system is 229E human corona virus (hCoV). Put plainly: 229E live virus assay (CPE, ATPlite readout, MRC-5 cells). The format is cell-based, hCoV-229E. The following applies: Human coronavirus 229E, MRC5, 144 h, read-out: 229E EC50. Background: In ATP-based viability assays light output follows the ATP content of the culture.
[2] abbreviates: MRC-5 cells, MOI 0.05, 6 days at 34° C., ATPlite, duplicate.

`CC(C)C(=O)N1C[C@]2(C[C@H]1C#N)C(=O)Nc1ccccc12` [Example 40]: the IC50 on SARS-CoV-2 3CL-protease was greater than 1 µM. The concentration for a half-maximal effect (EC50) in experiment [1] (setting [2]) is greater than 1 µM.
Turning to `CC(C)(C)C(=O)N1C[C@]2(C[C@H]1C#N)C(=O)Nc1ccccc12` [Example 41], the IC50 on SARS-CoV-2 3CL-protease was greater than 1 µM. Moreover, the EC50 in experiment [1] (setting [2]) was greater than 1 µM.
`N#C[C@@H]1C[C@@]2(CN1C(=O)C1CC1)C(=O)Nc1ccccc12` [Example 42]: the IC50 at SARS-CoV-2 3CL-protease was greater than 1 µM. In experiment [1] (setting [2]), the EC50 was greater than 1 µM.
As to `N#C[C@@H]1C[C@@]2(CN1C(=O)C1CCCCC1)C(=O)Nc1ccccc12` [Example 43], the IC50 at SARS-CoV-2 3CL-protease is greater than 1 µM. Also, in experiment [1] (setting [2]), the EC50 was greater than 1 µM.
`N#C[C@@H]1C[C@@]2(CN1C(=O)c1ccc3cccnc3c1)C(=O)Nc1ccccc12` [Example 44]: the IC50 on SARS-CoV-2 3CL-protease was greater than 1 µM. In experiment [1] (setting [2]), the EC50 is greater than 1 µM.
In the case of `CCNC(=O)N1C[C@]2(C[C@H]1C#N)C(=O)Nc1ccccc12` [Example 46], the IC50 at SARS-CoV-2 3CL-protease was greater than 1 µM. Moreover, the half-maximal effective concentration (EC50) in experiment [1] (setting [2]) is greater than 1 µM.
As to `CC(C)NC(=O)N1C[C@]2(C[C@H]1C#N)C(=O)Nc1ccccc12` [Example 47], the concentration for half-maximal inhibition (IC50) on SARS-CoV-2 3CL-protease was greater than 1 µM. In addition, the half-maximal effective concentration (EC50) in experiment [1] (setting [2]) is greater than 1 µM.
For the compound `N#C[C@@H]1C[C@@]2(CN1C(=O)NC1CC1)C(=O)Nc1ccccc12` [Example 48], on SARS-CoV-2 3CL-protease, the IC50 is greater than 1 µM. For the same compound, in experiment [1], the EC50 is greater than 1 µM.
Take `N#C[C@@H]1C[C@@]2(CN1C(=O)NC1CCCC1)C(=O)Nc1ccccc12` [Example 49]: the IC50 at SARS-CoV-2 3CL-protease is greater than 1 µM. Besides, the EC50 in experiment [1] (setting [2]) lay in the range of 0.1 to 1 µM.
Regarding `N#C[C@@H]1C[C@@]2(CN1C(=O)Nc1ccccc1)C(=O)Nc1ccccc12` [Example 50], the IC50 at SARS-CoV-2 3CL-protease was greater than 1 µM. In experiment [1] (setting [2]), the EC50 is greater than 1 µM.
As to `N#C[C@@H]1C[C@@]2(CN1C(=O)NCc1ccccc1)C(=O)Nc1ccccc12` [Example 51], at SARS-CoV-2 3CL-protease, the IC50 was greater than 1 µM. Moreover, the concentration giving a half-maximal response (EC50) in experiment [1] (setting [2]) was in the range of 0.1 to 1 µM.
As to `N#C[C@@H]1C[C@@]2(CN1C(=O)Nc1ccc3cccnc3c1)C(=O)Nc1ccccc12` [Example 52], on SARS-CoV-2 3CL-protease, the IC50 was greater than 1 µM. Besides, in experiment [1] (setting [2]), the EC50 is greater than 1 µM.
Take `N#C[C@@H]1C[C@@]2(CN1C(=O)NCc1nccs1)C(=O)Nc1ccccc12` [Example 53]: the 50% inhibitory concentration (IC50) on SARS-CoV-2 3CL-protease is greater than 1 µM. The concentration giving a half-maximal response (EC50) in experiment [1] (setting [2]) was greater than 1 µM.
